Reference: US20260250250A1, “3-(SULPHONYL OR SULFONIMIDOYL)PROP-2-EN-1-YL]-2-OXO-1,2-DIHYDROPYRIDINE-3-CARBOXAMIDE DERIVATIVES” (Flinder Therapeutics B.V., priority 2022, published 2026)

Key:
[1] = tested on: bladder carcinoma RT4 cell line; assay: TNF-α-induced cytotoxicity assay (CellTiter-Glo viability); assay type: cell-based; conditions: Homo sapiens, RT-4, 72 h
Procedure, shortened: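 RT4 bladder carcinoma cells, 1000 per well, stimulated with 1.25 ng/mL TNFα together with compound for 72 h at 37° C., 5% CO2. Viability read by CellTiter-Glo luminescence, proportional to cellular ATP, as a measure of HOIP-dependent cytotoxicity.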

[2] = target: T1, human E3 ubiquitin-protein ligase RNF31 (HOIP) (Homo sapiens, UniProt Q96EP0); assay: Cell-free HTRF-based HOIP inhibition assay; assay type: biochemical
T1 sequence (Q96EP0 695-1072 limits assumed): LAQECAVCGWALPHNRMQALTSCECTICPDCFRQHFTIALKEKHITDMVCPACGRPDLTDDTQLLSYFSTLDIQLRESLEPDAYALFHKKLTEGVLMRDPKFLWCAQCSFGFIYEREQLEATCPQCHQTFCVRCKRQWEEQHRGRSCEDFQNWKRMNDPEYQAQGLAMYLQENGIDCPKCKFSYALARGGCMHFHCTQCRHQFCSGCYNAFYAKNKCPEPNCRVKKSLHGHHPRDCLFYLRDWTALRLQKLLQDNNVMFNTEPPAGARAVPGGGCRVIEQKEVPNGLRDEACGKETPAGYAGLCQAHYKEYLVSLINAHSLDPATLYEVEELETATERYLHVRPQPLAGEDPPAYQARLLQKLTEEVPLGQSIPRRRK
Procedure, shortened: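 HTRF read (ex 337 nm; em 665 and 620 nm) after a 2.5 h, 25° C. ubiquitination step started by adding E2 plus substrates. Before that, E. coli-expressed human HOIP fragment and E1 were incubated 1 h at 25° C. with compound at 100-0.005 μM, 1% DMSO final.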

NF-κB signaling pathway = assay: Cell-based dual luciferase NF-κB reporter assay (HEK293 cells, TNF stimulated); conditions: Homo sapiens, HEK293
Procedure, shortened: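 HEK293 cells transfected with Firefly luciferase and NF-κB-response-element NanoLuc plasmids; compounds at 100–0.005 µM in 1% DMSO. Cells stimulated with 2.5 ng/mL TNF 30 min after compound addition. Firefly and NanoLuc activities read after 6 h by Nano-Glo dual-luciferase detection.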

SMILES	IC50 [2]	IC50 (NF-κB signaling pathway)	IC50 [1]
O=C(NC/C=C/S(=O)(=O)c1ccccc1)c1cc2c([nH]c1=O)CCN(C(=O)OCC1CC1)C2 [Example 69, cyclopropylmethyl 3-{[(2E)-3-(benzenesulfonyl)prop-2-en-1-yl]carbamoyl}-2-oxo-1,2,5,6,7,8-hexahydro-1,6-naphthyridine-6-carboxylate]	≤ 100 nM	≤ 1000 nM	≤ 1000 nM
O=C(NC/C=C/S(=O)(=O)c1ccc(Cl)cc1)c1cc2c([nH]c1=O)CCCCC2 [Example 36, N-[(2E)-3-(4-chlorobenzenesulfonyl)prop-2-en-1-yl]-2-oxo-1H,2H,5H,6H,7H,8H,9H-cyclohepta[b]pyridine-3-carboxamide]	≤ 1000 nM	≤ 100000 nM	≤ 10000 nM
O=C(NC/C=C/S(=O)(=O)c1ccc(Cl)cc1Cl)c1cc2c([nH]c1=O)CCCC2 [Example 32, N-[(2E)-3-(2,4-dichlorobenzenesulfonyl)prop-2-en-1-yl]-2-oxo-1,2,5,6,7,8-hexahydroquinoline-3-carboxamide]	≤ 100 nM	≤ 1000 nM	≤ 1000 nM

More lines, main results first:

IC50 [2]	IC50 (NF-κB signaling pathway)	SMILES	IC50 [1]
≤ 1000 nM	≤ 1000 nM	COc1cccc(S(=N)(=O)/C=C/CNC(=O)c2cc3c([nH]c2=O)CCCC3)c1 (stereo not drawn) [Example 64, N-[(2E)-3-[imino(3-methoxyphenyl)oxo-λ^6-sulfanyl]prop-2-en-1-yl]-2-oxo-1,2,5,6,7,8-hexahydroquinoline-3-carboxamide]	≤ 1000 nM
≤ 1000 nM	≤ 1000 nM	N=S(=O)(/C=C/CNC(=O)c1cc2c([nH]c1=O)CCCC2)c1ccc(Oc2ccccc2)cc1 (stereo not drawn) [Example 140, N-[(2E)-3-[imino(oxo)(4-phenoxyphenyl)-λ^6-sulfanyl]prop-2-en-1-yl]-2-oxo-1,2,5,6,7,8-hexahydroquinoline-3-carboxamide]	≤ 1000 nM
